Reference: BindingDB's records for patent US11691989 (Ascentage Pharma (Suzhou), 2023)

Target: T1, Induced myeloid leukemia cell differentiation protein Mcl-1 [171-323] (Homo sapiens, UniProt Q07820)
T1 construct: 171-323
Assay: Inhibition of Mcl-1 by fluorescence polarization (FP) assay
Method: The relative binding potency of representative Compounds of the Disclosure was determined by a fluorescence polarization (FP) assay. The method used a fluorescein labelled peptide (FAM-Bid) which binds to the Mcl-1 protein leading to an increased anisotropy measured in milli-polarization (mP) values using a plate reader. […] A 10-points serial dilution of each compound was prepared in DMSO and 5 μL solution was transferred into flat bottomed, 96-well back plate (final DMSO concentration […]). 120 μL of Buffer (PBS, 0.01% BGG (Sigma Cat. #SRE0011), 0.01% Triton X-100), containing the Fluorescein labelled peptide (Final concentration 2 nM) and Mcl-1 protein (final concentration 20 nM) was then added. […] 10-points dose response curves were plotted with GraphPad software using Sigmoidal Dose-Response Model and the IC50 values were determined by nonlinear regression fitting of the competition curves.

T1 sequence (Q07820 171-323): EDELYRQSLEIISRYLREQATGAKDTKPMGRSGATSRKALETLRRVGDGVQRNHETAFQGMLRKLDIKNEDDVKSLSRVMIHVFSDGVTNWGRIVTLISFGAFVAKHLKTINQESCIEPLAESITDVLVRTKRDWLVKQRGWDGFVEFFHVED

SMILES | IC50 [nM]
Cc1c(C(=O)O)n2c3ccc(Cl)c(c13)-c1c(nn(C)c1C)CSCc1cc(n(C(C)C)n1)CSc1cc(c3ccc(F)cc3c1)OCCC2 [US11691989, Compound 17] | 15
Cc1c2c(nn1C)CSCc1cc(n(C)n1)CSc1cc(c3ccc(F)cc3c1)OCCCn1c(C(=O)O)cc3c-2c(Cl)ccc31 [US11691989, Compound 13] | 19
